For data set [1], the system named is intracellular HIV PR activity. The arrangement: method as in PMID 17096588. Particulars: 5 μM NNRTI; cited from earlier work.
Data set [2] relates to Gag processing in MT-4-IIIB cells. Briefly: Immunoblot of Gag processing in chronically infected MT-4 cells. The format is cell-based, HIV-1. As to conditions: 200 nM DRV.
Data set [3] deals with HXB2D-EGFP infected CD4 positive cells isolated from PBMC. Briefly: Killing of HIV-1 infected CD4 positive primary T-cells, flow cytometry. In kind it is cell-based, human. Particulars: 100 nM DRV + 1 μM NNRTI + 1 μM AZT. How it is done: To validate our results obtained for the persistently infected cell line in a more relevant cell system we performed additional infection experiments using human peripheral blood mononuclear cells (PBMC). […]. PBMC isolated from healthy blood donors were activated and infected with a replication competent HIV-1 derivative which carries a gfp gene in the nef locus. The co-receptor antagonist AMD-3100 was added at day 2 post infection to prevent further viral spread. This was done to distinguish the proposed killing of infected cells from the inhibitory effect of NNRTIs and PIs on virus replication. […]. […] Similar results were obtained upon infection of CD4-positive primary T-cells with an EGFP-expressing virus (Figure 4B).
Figure 4 NNRTI induced selective killing of HIV-1 infected primary human cells. (A) PBMC prepared from buffy coats of healthy blood donors were infected with HIV-1AGFP. At day 2 post infection, 100 ng/ml AMD-3100 was added to all samples to prevent further infection. […] After further incubation for 5 days, cells were harvested and analyzed for the proportion of infected GFP expressing cells by flow cytometry. […] P-values were calculated using a two-tailed unpaired t-test (GraphPad Prism). Values were normalized to the respective solvent control. (B) CD4 positive cells isolated from PBMC were infected with HXB2D-EGFP. […] After further incubation for 3 days, cells were harvested and analyzed for the proportion of infected cells by flow cytometry. […] Asterisks: non-infected controls.
Peripheral blood mononuclear cells (PBMC) were purified from buffy coats of HIV-negative blood donors, grown in supplemented RPMI 1640 and stimulated by the addition of 10 ng/ml IL-2 (Biomol) and 2 μg/ml PHA (Sigma). PBMC pooled from two donors each were used for infection. […] For infection of PBMC, the HIV-1 derivatives HIV-1-AGFP [49] carrying the gfp gene fused to the codon for amino acid 16 of Nef in pNL4-3, or HXB2D-EGFP [60], which carries an egfp gene in the place of the viral nef open reading frame, were used as indicated. […]

Data set [4] deals with HIV-1IIIB. Briefly: Direct antiviral activity: MT4-LTR-EGFP cells infected with HIV-1IIIB, EGFP fluorescence. The format is cell-based. Particulars: read-out: Inhibition of HIV replication in vitro EC50. The method, then: After 3 days of incubation, infected cells were quantified by determination of total EGFP fluorescence per well based on microscopy and subsequent image analysis. Threshold values were determined from the average pixel value plus 6 standard deviations from the uninfected control wells, and the median threshold from all control wells on a plate was defined as baseline GFP expression. Intensity values for the sample wells were then determined by subtracting the background threshold from each pixel value obtained from the image of the respective well and calculating the sum of net pixel intensities. Percent inhibition was calculated as 100 * (1 - (Sample - CC)/(VC - CC)).

For data set [5], the system named is intracellular Gag processing by HIV PR. The format is cell-based, HIV-1. Particulars: for Enhancement of alpha complementation: 0.03 to 10 μM NNRTI, result in words. How it is done: In previous studies, high concentrations of NNRTI (5 μM) were required to observe NNRTI mediated activation of intracellular HIV PR activity. […]. Towards this end, we developed a biochemical assay for gel independent quantitation of intracellular Gag processing by HIV PR in the context of a virus producing cell. We had previously shown that additional protein domains, consisting of small epitope tags or even the 27 kDa green fluorescent protein (EGFP), can be inserted between the MA and CA domains of the Gag and Gag-Pol polyproteins without affecting polyprotein production or processing by HIV PR [36]. Based on this, we designed a HIV reporter construct which contained a small N-terminal fragment ('alpha peptide') of Escherichia coli beta-galactosidase (β-Gal), flanked by two HIV PR recognition sites, between the MA and CA coding sequences of Gag (Figure 1A). […] This so called alpha complementation principle can be exploited for use in mammalian cells and has been employed for the establishment of various cell based biochemical assay systems. We reasoned that embedding of the small alpha peptide within the multi-domain polyproteins Gag or Gag-Pol, respectively, should impair its productive association with the omega subunit, while proteolytic release of the alpha peptide from the polyprotein by PR would allow the formation of enzymatically active β-Gal. This should allow us to monitor intracellular Gag and Gag-Pol processing through increased β-Gal activity.
Reconstituted β-Gal activity in cell lysates was measured by cleavage of the chromogenic substrate CPRG [42] as described in Methods.
The activity of β-Gal in cell lysates from transfected 293T cells was measured by enzymatic cleavage of the chromogenic β-Gal substrate chlorphenolred-β-D-galactopyranoside (CPRG, Roche; [42]). At 44 h post transfection, cells were briefly rinsed with PBS and suspended in reporter gene assay lysis buffer (Roche, 600 μl per 6-well dish) supplemented with a protease inhibitor mix (Roche). Cell suspensions were incubated for 10 min at room temperature and cell debris was subsequently removed by brief centrifugation. Five μl of supernatant were diluted in 96-well plates with 95 μl CPRG reaction buffer (50 mM potassium phosphate, pH 7.5, 1 mM MgCl2) and pre-warmed for 5 min to 37°C. 100 μl of pre-warmed reaction mix (100 μM CPRG in CPRG reaction buffer supplemented with protease inhibitor cocktail and 40 μM β-mercaptoethanol) were added and β-Gal mediated cleavage of CPRG was monitored by recording absorption at 592 nm every 2 min for 20 min at 37°C using a TECAN Safire multi-well reader. OD592 values were plotted over time and relative reaction rates (OD592/min) were determined from the initial linear velocities.

Data set [6] in a line: Cytotoxicity on uninfected control cells, EGFP fluorescence per well. In kind it is cell-based. Particulars: human. How it is done:
(§1) The cytotoxicity of inhibitors was determined in parallel on MT4-CMV-EGFP control cells and on MT4-LTR-EGFP-IIIB virus producing cells, respectively.

Data set [7] concerns the target T1, RT heterodimer (p66/p51) (Human immunodeficiency virus type 1 group M subtype B, UniProt P04585).
T1 construct: the bait protein (p66) was fused to the C-terminus of a chimeric receptor; expressed in transfected cells; host or cells: mammalian cells
Briefly: cell-based. In kind it is cell-based, HIV-1. The text has this:
RT heterodimer formation was monitored using a mammalian two hybrid system described previously. In brief, the bait protein (p66) was fused to the C-terminus of a chimeric receptor consisting of the extracellular part of the erythropoietin receptor and the intracellular part of the leptin receptor incapable of STAT activation. The prey protein (p51) was coupled to a part of the cytoplasmic tail of the gp130 chain carrying several STAT3 recruitment domains. Interaction of bait and prey protein leads to functional complementation of STAT3 activity, which results in Epo dependent induction of a STAT3-responsive luciferase reporter gene. Enhancement of this interaction by the addition of compounds can thus be measured by an increase of luciferase expression.

Data set [8] has as its system 293T cells. Briefly: Microscopically detectable impairment of cell growth of transfected 293T cells. The format is cell-based. Particulars: high NNRTI concentrations (5 μM and above). The method, then: At 44 h post transfection, cell lysates were analyzed for β-Gal activity.
Data set [9] has as its system MT4-CMV-EGFP control cells. Briefly: Cytotoxicity on uninfected control cells, EGFP fluorescence per well. In kind it is cell-based. How it is done:
as §1

For data set [10], the system named is MT4-LTR-EGFP-IIIB HIV-1 producing cells. Briefly: in vitro. In kind it is cell-based. Particulars: for Cytotoxicity on MT4-LTR-EGFP-IIIB cells, in words: summary of Table 1. How it is done:
as §1

Data set [11] in a line: in vitro. Particulars: human, 4 days, no DRV; mean ± SD; tested up to 10 μM; read-out: Cytotoxicity on MT4-LTR-EGFP-IIIB HIV-1 producing cells CC50. The format is cell-based. The method, then:
as §1

The target of data set [12] is omega fragment of beta-galactosidase (inactive fragment lacking amino acids 11-41), encoded by pCMVω (Escherichia coli).
[13] abbreviates: Human immunodeficiency virus 1, 72 h, MT4-LTR-EGFP cells, HIV-1IIIB MOI 0.01, 3 days, mean ± SD of three or more measurements.
Setting [14] is: 293T cells, 44 h post transfection.
Setting [15] is: MT4-CMV-EGFP control cells (uninfected), 4 days, mean ± SD, tested up to 10 μM, read-out: Cytotoxicity on MT4-CMV-EGFP control cells CC50.

Like-named read-outs stand apart in the source and are kept apart here.

These results are taken from publication PMC2974656, “Selective killing of human immunodeficiency virus infected cells by non-nucleoside reverse transcriptase inhibitor-induced activation of HIV protease” (Retrovirology, 2010).

Usually CC50 stands for the concentration at which the toxic effect on the cells reaches its halfway point.

For `CC(C)Nc1cccnc1N1CCN(C(=O)c2cc3cc(NS(C)(=O)=O)ccc3[nH]2)CC1` [DLV, delavirdine], the “Stimulation of Gag or Gag-Pol processing” value in [1] was “did not stimulate”.

Consider `CC(C)CN(C[C@@H](O)[C@H](Cc1ccccc1)NC(=O)O[C@H]1CO[C@H]2OCC[C@H]21)S(=O)(=O)c1ccc(N)cc1` [DRV, darunavir], for which, in data set [2], the “Gag processing under DRV treatment” value is “impaired”. Further, the “Effect of DRV on the NNRTI effect in CD4-positive primary T-cells” value in data set [3] was “completely reversed”.

For `Cc1cc(C#N)cc(C)c1Oc1nc(Nc2ccc(C#N)cc2)nc(N)c1Br` [ETV, etravirine], the EC50 in data set [4] (setting [13]) came to 3.2 ± 5 nM; in data set [7], 270 nM. In addition, the “Concentration required to achieve the maximal effect on β-Gal activity” value in [5] (setting [14]) is ~ 1 μM. The half-maximal cytotoxic concentration (CC50) at 4 days in data set [6] (setting [15]) is over 10000 nM. For the same compound, the “Impairment of cell growth with decrease in β-Gal activity indicative of cytotoxic effects” value in [8] is “most pronounced”.

For the compound `COP(=O)(c1cc(C)cc(/C=C/C#N)c1)c1c(C(N)=O)[nH]c2ccc(Cl)cc12` (stereo not drawn) [IDX-12899], the EC50 in [4] (MT4-LTR-EGFP cells, HIV-1IIIB MOI 0.01, 3 days, mean ± SD of three or more measurements) stood at 1.9 ± 1.3 nM; in data set [7] (concentration enhancing luciferase signal by 50% over control, read-out: Enhancement of RT-Dimerization EC50), 4.6 nM. Besides, in data set [5] (setting [14]), the “Concentration showing strong β-Gal activity enhancement” value was ~ 250 nM. The CC50 in data set [9] was over 10000 nM; in data set [10] (4 days, no DRV, mean ± SD, tested up to 10 μM, read-out: Cytotoxicity on MT4-LTR-EGFP-IIIB HIV-1 producing cells CC50), 290 ± 210 nM. Moreover, the “Cytotoxicity on MT4-LTR-EGFP-IIIB cells, in words” value in [10] was “submicromolar range”. Further, the “Promotion of RT dimerization, in words” value in data set [7] (summary of Table 1) is on record as “low nM range”.

With `Cc1ccnc2c1NC(=O)c1cccnc1N2C1CC1` [NVP, nevirapine], in data set [4] (setting [13]), the EC50 came out at 42 ± 20 nM. Moreover, the “Enhancement of alpha complementation” value in data set [5] is on record as “little or no enhancement”. Besides, the CC50 at 4 days in data set [6] (setting [15]) was over 10000 nM. In addition, the “Stimulation of Gag or Gag-Pol processing” value in [1] is recorded as “did not stimulate”.

Regarding `Cc1cc(C)c(Nc2ccnc(Nc3ccc(C#N)cc3)n2)c(C)c1` [TMC-120], in data set [4] (setting [13]), the EC50 was 1.7 ± 1.4 nM. Besides, the “Enhancement of alpha complementation” value in data set [5] is “little or no enhancement”. Besides, the half-maximal cytotoxic concentration (CC50) at 4 days came to 3020 ± 900 nM in data set [6] (setting [15]) and 2560 ± 740 nM in data set [11]. Moreover, the “Cytotoxicity on uninfected MT4-CMV-EGFP control cells, in words” value in data set [9] (text summary of Table 1, tested range up to 10 μM) was “comparable toxicity”. For the same compound, the “Cytotoxicity on MT4-LTR-EGFP-IIIB cells, in words” value in data set [10] is “displayed toxicity”. In data set [8], the “Impairment of cell growth with decrease in β-Gal activity indicative of cytotoxic effects” value was “most pronounced”. The “Stimulation of Gag or Gag-Pol processing” value in data set [1] is “stimulation of Gag processing”.

As to `CCc1nn(CCO)c(CC)c1Oc1cc(C#N)cc(C#N)c1` [UK-453061], the EC50 in data set [4] (Human immunodeficiency virus 1, 72 h) is 7.5 ± 1.4 nM; in data set [7], 150 nM. In addition, the “Enhancement of alpha complementation” value in data set [5] is “little or no enhancement”. The half-maximal cytotoxic concentration (CC50) at 4 days in [6] is over 10000 nM.

As for “alpha peptide of Escherichia coli beta-galactosidase (amino acids 1-51), released from Gagα by HIV-1 (from UniProt P00722 1-51)”, in [12], the β-Gal activity (relative rate of CPRG cleavage) in lysates of 293T cells co-transfected with pCMVω and pCHIV.MAα, DMSO control is 0.109 min^-1.

In [12], “modified Gagα precursor: HIV-1 Gag polyprotein with the β-Gal alpha peptide inserted between MA and CA (from pCHIV.MAα) (from UniProt P12493;P00722)” came in with a β-Gal activity (relative rate of CPRG cleavage) in lysates of 293T cells co-transfected with pCMVω and pCHIV.MAα, grown with 2 μM LPV (Gagα processing nearly completely blocked) of 0.054 min^-1.
